ChEMBL document CHEMBL1201862, “PubChem BioAssay data set” (2004)
The source made the active and inactive calls.

Experiments:
[1] = Luminescence Cell-Based Dose Retest to Confirm Inhibitors of Cancer Stem Cells. [Related pubchem assays (depositor defined):AID2717, AID2721]; assay type: functional; conditions: Homo sapiens
[2] = biological target: T1, Corticotropin-releasing factor receptor 2/Corticotropin-releasing factor-binding protein (Homo sapiens, UniProt P24387+Q13324); assay: Dose Response confirmation of uHTS hits for small molecule antagonists of the CRF-binding protein and CRF-R2 receptor complex.; assay type: functional; conditions: read-out: IC50_Mean
T1 sequence (Q13324 whole entry): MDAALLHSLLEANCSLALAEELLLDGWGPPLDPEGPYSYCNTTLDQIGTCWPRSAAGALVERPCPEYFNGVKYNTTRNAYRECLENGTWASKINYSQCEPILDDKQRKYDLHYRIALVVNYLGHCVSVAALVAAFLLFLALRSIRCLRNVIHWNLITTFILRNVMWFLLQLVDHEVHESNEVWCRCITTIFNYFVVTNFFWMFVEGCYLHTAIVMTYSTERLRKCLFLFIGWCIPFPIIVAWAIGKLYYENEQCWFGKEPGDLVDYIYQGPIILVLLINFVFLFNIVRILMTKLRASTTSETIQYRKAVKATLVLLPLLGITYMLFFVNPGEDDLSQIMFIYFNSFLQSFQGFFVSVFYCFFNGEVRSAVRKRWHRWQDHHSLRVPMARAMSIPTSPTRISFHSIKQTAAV
T1 sequence (P24387 whole entry): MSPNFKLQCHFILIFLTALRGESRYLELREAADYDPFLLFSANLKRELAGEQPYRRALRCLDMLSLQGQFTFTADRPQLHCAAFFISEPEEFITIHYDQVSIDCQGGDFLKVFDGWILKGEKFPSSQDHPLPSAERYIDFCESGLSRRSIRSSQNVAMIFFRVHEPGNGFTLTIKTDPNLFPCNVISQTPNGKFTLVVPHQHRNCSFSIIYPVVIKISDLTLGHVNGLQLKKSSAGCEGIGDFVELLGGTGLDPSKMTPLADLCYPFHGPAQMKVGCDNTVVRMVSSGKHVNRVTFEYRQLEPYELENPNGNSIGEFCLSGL

[3] = biological target: T1, Corticotropin-releasing factor receptor 2/Corticotropin-releasing factor-binding protein; assay: activators of CRF receptor 2 with binding protein – uHTS hits, confirmation (AID 602473); assay type: functional; conditions: read-out: EC50_Mean
[4] = biological target: T2, Protein skinhead-1 (Caenorhabditis elegans, UniProt P34707); assay type: functional
T2 sequence (P34707 whole entry): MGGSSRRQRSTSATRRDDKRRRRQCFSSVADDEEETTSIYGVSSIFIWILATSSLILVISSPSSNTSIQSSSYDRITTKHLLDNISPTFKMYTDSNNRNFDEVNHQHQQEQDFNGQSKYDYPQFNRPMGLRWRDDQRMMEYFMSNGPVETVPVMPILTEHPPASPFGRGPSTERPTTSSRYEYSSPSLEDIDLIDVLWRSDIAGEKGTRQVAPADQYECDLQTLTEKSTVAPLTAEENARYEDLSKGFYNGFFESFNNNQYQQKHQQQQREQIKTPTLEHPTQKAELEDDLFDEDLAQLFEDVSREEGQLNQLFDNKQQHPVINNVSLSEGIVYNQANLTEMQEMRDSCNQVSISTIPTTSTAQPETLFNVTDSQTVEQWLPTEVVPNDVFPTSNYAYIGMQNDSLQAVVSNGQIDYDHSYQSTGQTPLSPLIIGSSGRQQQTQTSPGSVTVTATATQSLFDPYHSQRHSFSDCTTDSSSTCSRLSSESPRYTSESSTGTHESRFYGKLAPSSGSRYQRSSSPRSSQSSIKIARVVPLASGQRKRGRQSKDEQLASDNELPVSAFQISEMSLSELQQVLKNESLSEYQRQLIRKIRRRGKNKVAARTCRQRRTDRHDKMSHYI

[5] = biological target: Cytochrome P450 2D6 (Homo sapiens, UniProt P10635);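 also: CYP2D6 member of a cytochrome P450 panel assay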
Sequence of Cytochrome P450 2D6 (P10635 whole entry): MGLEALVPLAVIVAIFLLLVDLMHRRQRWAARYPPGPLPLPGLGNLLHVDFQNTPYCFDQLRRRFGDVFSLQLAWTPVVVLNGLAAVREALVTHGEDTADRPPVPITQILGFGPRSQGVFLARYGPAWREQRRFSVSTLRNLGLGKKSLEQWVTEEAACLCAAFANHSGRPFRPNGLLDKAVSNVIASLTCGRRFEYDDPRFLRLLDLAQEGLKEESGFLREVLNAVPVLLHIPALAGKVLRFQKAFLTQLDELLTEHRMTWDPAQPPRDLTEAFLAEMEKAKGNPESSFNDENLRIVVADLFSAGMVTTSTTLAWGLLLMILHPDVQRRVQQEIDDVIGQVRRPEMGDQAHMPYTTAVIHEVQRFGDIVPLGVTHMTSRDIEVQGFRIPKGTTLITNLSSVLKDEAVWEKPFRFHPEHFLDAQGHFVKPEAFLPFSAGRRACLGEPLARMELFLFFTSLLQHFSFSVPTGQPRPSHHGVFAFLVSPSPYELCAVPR

[6] = viability of PTEN-deleted HCT116 cells – cell-based, HCT116 PTEN knockout, dose response (AID 1047); assay type: functional;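 also: HCT116 colon tumor cells with PTEN knocked out; cells exposed to compound for 60 hours before readout; potency for loss of cell viability measured by luminescence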
[7] = viability of HCT116 lacking mutant beta-catenin – cell-based, human colon tumor, dose response (AID 1045); assay type: functional;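 also: HCT116 colon tumor cells with beta catenin knocked out; cells exposed to compound for 60 hours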
[8] = NIH3T3 cell viability loss – ATP luminescence, mouse fibroblasts, counter-screen, dose response (AID 2010); assay type: functional, cell-based;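 also: cells exposed to compound for about 90 hours before reading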
[9] = Trypanosoma cruzi growth suppression in host cells – NIH3T3 host cells, beta-gal luminescence, confirmation (AID 2044); assay type: functional, cell-based;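 also: intracellular parasites grown in NIH/3T3 mouse fibroblasts as host cells; luminescent beta-galactosidase reporter signal from transgenic T. cruzi replicating inside host cells; inhibitors lower the luminescence signal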
[10] = tested on: Streptococcus; assay: GAS UMAA2166 growth inhibition – luminescence, BacTiterGlo, counter-screen for streptokinase expression inhibitor project, dose response (AID 1915); assay type: functional, organism-based;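 also: potency for reduction of bacterial viability or growth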
[11] = biological target: T3, Streptokinase A (Streptococcus pyogenes serotype M1, UniProt P10520); assay: viability-normalized secreted streptokinase activity reduction – plasminogen activation absorbance, OD405, dose response (AID 1914); assay type: functional, Streptococcus pyogenes M1 GAS;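 also: secreted streptokinase activity via plasminogen activation per viability signal from cell pellet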
T3 sequence (P10520 whole entry): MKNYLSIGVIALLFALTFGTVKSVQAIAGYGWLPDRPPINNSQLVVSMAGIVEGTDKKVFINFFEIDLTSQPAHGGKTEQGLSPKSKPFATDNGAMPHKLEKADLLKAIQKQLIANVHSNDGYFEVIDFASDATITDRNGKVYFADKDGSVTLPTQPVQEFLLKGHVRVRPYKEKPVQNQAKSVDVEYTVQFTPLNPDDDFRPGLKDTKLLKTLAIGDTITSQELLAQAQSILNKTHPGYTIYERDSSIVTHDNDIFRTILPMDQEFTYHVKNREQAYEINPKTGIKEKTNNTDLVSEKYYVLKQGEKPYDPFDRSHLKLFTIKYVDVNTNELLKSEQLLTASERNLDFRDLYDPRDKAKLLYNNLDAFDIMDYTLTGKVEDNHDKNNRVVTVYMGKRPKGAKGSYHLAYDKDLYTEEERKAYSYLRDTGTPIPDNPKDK

[12] = tested on: Streptococcus sp. 'group A'; assay: Streptococcus pyogenes SK(-)GAS viability under kanamycin – luminescence, BacTiterGlo, confirmation, counter-screen for streptokinase expression inhibitor project, dose response (AID 1900); assay type: functional, organism-based
[13] = blockers of HIV-1 envelope-mediated cell-cell fusion – cherry-pick, dose response (AID 652057); assay type: functional, cell-based
[14] = HIV-1 AD8 envelope cell-cell fusion blockers – cherry-pick, dose response (AID 652062); assay type: functional, cell-based;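 also: luciferase signal from cell-cell fusion driven by HIV-1 clade B AD8 Env; potency is for inhibitors of fusion seen as a drop in luminescence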
[15] = biological target: T4, Heat shock factor protein 1 (Mus musculus, UniProt P38532); assay: enhancement of HSF1-driven luciferase signal – cell-based, NIH3T3, luminescence, dose retest, confirmation (AID 435004); assay type: functional;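 also: stress induced by proteasome inhibitor MG132 added 30 min after compound; luciferase reporter driven by HSF1 response element in NIH3T3 cells; actives raise luminescence as potentiators of the MG132 stress response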
T4 sequence (P38532 whole entry): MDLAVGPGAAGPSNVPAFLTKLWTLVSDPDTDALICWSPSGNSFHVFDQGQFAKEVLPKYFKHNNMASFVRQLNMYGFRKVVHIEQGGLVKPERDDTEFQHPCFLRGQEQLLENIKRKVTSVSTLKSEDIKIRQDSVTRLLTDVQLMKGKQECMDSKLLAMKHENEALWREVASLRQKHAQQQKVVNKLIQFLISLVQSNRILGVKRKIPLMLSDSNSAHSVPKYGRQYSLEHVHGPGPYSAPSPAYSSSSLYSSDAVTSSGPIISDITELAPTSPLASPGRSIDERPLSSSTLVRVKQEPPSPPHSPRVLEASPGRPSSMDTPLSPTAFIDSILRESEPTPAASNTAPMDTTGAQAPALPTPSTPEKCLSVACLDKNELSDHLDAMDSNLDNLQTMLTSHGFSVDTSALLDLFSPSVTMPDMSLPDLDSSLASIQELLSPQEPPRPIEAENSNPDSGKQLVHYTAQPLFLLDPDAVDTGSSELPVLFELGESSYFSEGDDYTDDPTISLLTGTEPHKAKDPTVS

[16] = Luminescence Cell-Based Dose Confirmation HTS to Identify Inhibitors of Platelet Dense Granule Release. [Related pubchem assays: 1663 (Primary HTS), 1678 (Summary of Project)]; assay type: functional
[17] = biological target: Luciferin 4-monooxygenase (Photinus pyralis, UniProt P08659); assay: inhibition of purified Photinus pyralis luciferase – biochemical, luminescence, dose response (AID 1891)
Sequence of Luciferin 4-monooxygenase (P08659 whole entry): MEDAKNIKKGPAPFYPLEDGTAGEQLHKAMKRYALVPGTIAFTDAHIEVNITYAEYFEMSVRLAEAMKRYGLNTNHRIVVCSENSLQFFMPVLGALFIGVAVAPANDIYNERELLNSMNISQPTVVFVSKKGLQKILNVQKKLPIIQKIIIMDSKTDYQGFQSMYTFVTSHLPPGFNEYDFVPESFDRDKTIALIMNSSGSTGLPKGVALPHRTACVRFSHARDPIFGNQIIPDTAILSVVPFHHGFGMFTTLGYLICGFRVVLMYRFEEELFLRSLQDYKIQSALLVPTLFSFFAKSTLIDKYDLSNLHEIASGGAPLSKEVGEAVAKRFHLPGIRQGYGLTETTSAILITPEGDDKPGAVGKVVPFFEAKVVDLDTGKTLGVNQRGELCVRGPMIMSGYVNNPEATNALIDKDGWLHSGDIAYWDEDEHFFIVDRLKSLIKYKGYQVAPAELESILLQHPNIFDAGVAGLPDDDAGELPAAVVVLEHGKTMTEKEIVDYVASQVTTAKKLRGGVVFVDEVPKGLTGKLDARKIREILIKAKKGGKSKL

With `CCc1cc2cc(C)cc(C)c2nc1SCC(=O)N1CCN(C(=O)c2ccco2)CC1` the AC50 [1] was 12.8 µM (active), the IC50 [2] was > 47.1 µM (inactive) and the EC50 [3] was > 53 µM (inactive).
For `COc1ccc(Cl)cc1C(=O)Nc1ccccc1N1CCCCC1`, the IC50 [4] was > 100 µM (inactive).
In the case of `FC(F)(F)c1cccc(-c2nc(-c3ccncc3)no2)c1`, the IC50 [4] is reported as > 100 µM (inactive).
For `COc1cnc(SCc2ccc(Cl)cc2)nc1Cl`, the AC50 [5] was 17.8 µM (inconclusive).
In the case of `Cc1cccc(N(CC(O)CON=C2c3ccccc3-c3ccccc32)S(C)(=O)=O)c1` (configuration not stated), the EC50 [6] is reported as 28.8 µM (active), the EC50 [7] is reported as 29.6 µM (active) and the EC50 [8] is reported as > 60 µM (not active). The EC50 [9] was 3.22 µM (active).
For `Cc1ccc(CCNC(=O)c2coc3nc4ccccc4nc23)cc1`, the IC50 [4] was > 100 µM (inactive).
In the case of `Cc1ccc(-c2nc(CSCC(=O)N3CCN(c4ccccn4)CC3)c(C)o2)cc1`, the EC50 [6] is reported as 35 µM (active) and the EC50 [7] is reported as 17.1 µM (active).
In the case of `CCOc1ccc(NC(=O)C2CCCN(S(=O)(=O)c3c(C)nn(C)c3C)C2)cc1` (configuration not stated), the IC50 [4] is reported as > 100 µM (inactive).
For `O=C(Nc1nc2ccc(Cl)cc2s1)c1ccc(N2CCCCC2)c([N+](=O)[O-])c1`, the EC50 [6] was 12.2 µM (active) and the EC50 [7] was 13.5 µM (active).
In the case of `Cc1ccc(C(=O)/C=C/c2ccc(Br)cc2)o1`, the EC50 [6] is reported as 8.44 µM (active) and the EC50 [7] is reported as 6.62 µM (active).
For `O=C(c1ccc(COc2ccc(F)cc2)o1)n1cccn1`, the AC50 [5] was 0.00562 µM (inconclusive).
In the case of `Cc1cccc2cc(C#N)c(N3CCCC3)nc12`, the IC50 [4] is reported as > 100 µM (inactive).
With `O=C(CCc1nnc2ccc(NCc3ccco3)nn12)N1CCN(c2ccccc2F)CC1` the IC50 [2] was > 47.1 µM (inactive) and the EC50 [3] was > 53 µM (inactive).
In the case of `COc1ccc(CN2CCCC(C(=O)c3cccc(Cl)c3)C2)cc1` (configuration not stated), the IC50 [4] is reported as > 100 µM (inactive).
For `COc1ccc(-c2c3c(nc4sc5c(Cl)nc(C)nc5c24)CCC3)cc1`, the EC50 [6] was 4.46 µM (active) and the EC50 [7] was 1.59 µM (active).
With `COCCN1C(=O)CC(NNC(=O)c2ccc(S(=O)(=O)N3CCCC3)cc2)C1=O` (configuration not stated) the IC50 [4] was > 100 µM (inactive).
With `N#CCC(=O)Nc1ccc(C(=O)OCC(=O)NNC(=O)c2cccs2)cc1` the IC50 [2] was > 47.1 µM (inactive) and the EC50 [3] was > 53 µM (inactive).
In the case of `CN(/N=C/c1ccc(Cl)cc1Cl)c1ncc(Cl)cc1C(F)(F)F`, the EC50 [10] is reported as > 150 µM (not active), the EC50 [11] is reported as 21.2 µM (active) and the IC50 [2] is reported as > 47.1 µM (inactive). For the same compound, the EC50 [12] was 16.9 µM (active) and the EC50 [3] was > 53 µM (inactive).
In the case of `CCSc1nnc(-c2ccc(Cl)cc2Cl)o1`, the IC50 [4] is reported as 29.7 µM (active).
With `C[C@H]1CN([C@@H](C)CO)C(=O)c2ccccc2-c2ccccc2CO[C@H]1CN(C)Cc1cccc(F)c1` the AC50 [13] was < 0.26 µM (active) and the AC50 [14] was 0.416 µM (active).
With `COc1cc(C[C@H](C)[C@H](C)Cc2ccc3c(c2)OCO3)ccc1O` [AUSTROBAILIGNAN 6] the AC50 [1] was 5.23 µM (active), the IC50 [2] was > 47.1 µM (inactive) and the EC50 [3] was > 53 µM (inactive).
With `CCOC(=O)c1c(NC(=O)c2cc3n(n2)C(C(F)(F)F)CC(c2cccs2)N3)sc(C)c1C` (configuration not stated) the EC50 [6] was 2.45 µM (active) and the EC50 [7] was 2.59 µM (active).
With `CN1CCC(N(C)CC(=O)Nc2ccccc2N2CCOCC2)CC1` the IC50 [4] was > 100 µM (inactive).
For `OC(CNCc1cccc(Cl)c1)c1ccccc1` (configuration not stated), the EC50 [15] was > 260 µM (inactive), the EC50 [16] was 21.2 µM (active) and the EC50 [17] was > 112 µM (not active).
For `Cc1ccc(NS(=O)(=O)c2cccc3nsnc23)cc1`, the IC50 [2] was > 47.1 µM (inactive) and the EC50 [3] was > 53 µM (inactive).
For `FC(F)(F)C1=CC(c2ccc(Cl)cc2)=NCCN1`, the IC50 [4] was > 100 µM (inactive).
With `CC(C)CC1CC(=O)OC1(C)C(=O)CSc1nc2ccccc2s1` (configuration not stated) the AC50 [5] was 3.55 µM (inconclusive).
For `COc1ccc(S(=O)(=O)N(c2onc(C)c2Cl)S(=O)(=O)c2ccc(OC)cc2)cc1`, the IC50 [2] was > 47.1 µM (inactive) and the EC50 [3] was > 53 µM (inactive).
With `CCNC(=O)C[C@H]1CC[C@@H]2[C@@H](COc3ccc(NC(=O)Nc4cccc(OC)c4)cc3C(=O)N2C)O1` the AC50 [13] was 37.7 µM (active) and the AC50 [14] was 50.2 µM (active).
For `c1ccc(-c2noc(CN3CCN(c4cnccn4)CC3)n2)cc1`, the IC50 [2] was > 47.1 µM (inactive) and the EC50 [3] was > 53 µM (inactive).
In the case of `O=[N+]([O-])c1cccc(COc2ccc(CN3CCOCC3)cc2)c1`, the IC50 [2] is reported as > 47.1 µM (inactive) and the EC50 [3] is reported as > 53 µM (inactive).
